The results in this text go back to patent US20230365592A1 (Agios Pharmaceuticals, Inc., priority 2022, published 2023).

The first assay deals with T1, human PAH with the R408W mutation (Homo sapiens, UniProt P00439, R408W).
T1 construct: expressed in transfected cells
T1 sequence (P00439 1-452 R408W): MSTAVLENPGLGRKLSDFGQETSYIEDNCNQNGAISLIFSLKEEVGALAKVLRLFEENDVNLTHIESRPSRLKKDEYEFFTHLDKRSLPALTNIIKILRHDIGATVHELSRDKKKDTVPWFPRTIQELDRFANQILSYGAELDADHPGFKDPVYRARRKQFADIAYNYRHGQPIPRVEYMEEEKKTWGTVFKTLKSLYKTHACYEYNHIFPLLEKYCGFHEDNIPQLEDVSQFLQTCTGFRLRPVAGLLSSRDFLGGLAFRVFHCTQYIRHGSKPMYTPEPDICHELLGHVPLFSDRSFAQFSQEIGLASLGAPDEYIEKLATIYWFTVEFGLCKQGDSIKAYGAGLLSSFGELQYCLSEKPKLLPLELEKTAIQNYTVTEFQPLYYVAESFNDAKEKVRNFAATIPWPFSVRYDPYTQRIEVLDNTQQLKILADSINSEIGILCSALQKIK
Briefly: Cell Based Phenylalanine Flux Assay.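 Further: after compound treatment, cells received sepiapterin plus isotope-labelled Phenylalanine for 4 hours, then labelled Tyrosine in the medium was quantified, 10-point 2-fold dilution series run in duplicate.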 As to conditions: A375 cells expressing R408W PAH; 24 hrs with compound, then 20 µM sepiapterin and 800 µM 13C9,15N-Phenylalanine for 4 hours; 13C-Tyrosine by LC-MS; average where tested multiple times; read-out: AC50.
In the case of `CC(C)(O)c1cc(C(=O)N2CCc3[nH]cnc3C2c2cc3ccccn3n2)no1` (stereo not shown), the AC50 was more than 5000 nM.

In the case of `O=C(c1cnco1)N1CCc2[nH]cnc2[C@@H]1c1cc2ccccn2n1` (single isomer, unassigned), the AC50 was 1000 to 5000 nM.

`FC(F)c1cccc2cc(C3c4nc[nH]c4CCN3c3ncccn3)nn12` (stereo not shown): the AC50 fell in the range of 1000 to 5000 nM.

As for `Cc1ncccc1-c1nnc(N2CCc3[nH]cnc3[C@H]2c2cc3c(C4CC4)cccn3n2)o1` (single isomer, unassigned), the AC50 is 1000 to 5000 nM.

Turning to `Cc1cccn2nc([C@H]3c4nc[nH]c4CCN3C(=O)c3nnc(N4CCOCC4)o3)cc12` (single isomer, unassigned), the concentration at half-maximal activity (AC50) is more than 5000 nM.

On to `CN(C)C(=O)c1nnc(N2CCc3[nH]cnc3C2c2cc3c(F)cccn3n2)o1` (stereo not shown), for which the AC50 lay in the range of 1000 to 5000 nM.

As to `O=C(c1cnn2cc(N3CCOCC3)ccc12)N1CCc2[nH]cnc2C1c1cc2ccccn2n1` (stereo not shown), the AC50 is more than 5000 nM.

As to `Cc1cccc2cc([C@H]3c4nc[nH]c4CCN3C(=O)c3ncnn3C)nn12` (single isomer, unassigned), the AC50 is more than 5000 nM.

Regarding `Cc1ccn2nc(C3c4nc[nH]c4CCN3C(=O)c3nnc(C(C)(C)C)o3)cc2c1` (stereo not shown), the AC50 is 1000 to 5000 nM.

Staying with this assay, now noted: A375 cells expressing human PAH R408W; 24 hrs compound incubation; 13C-Tyrosine by LC-MS; average where tested multiple times; read-out: AC50.
Consider `O=C(c1cnn2cc(C3CC3)ccc12)N1CCc2[nH]cnc2[C@H]1c1cc2cccc(C(F)F)n2n1` [Example 2462, (S)-(6-cyclopropylpyrazolo[1,5-a]pyridin-3-yl)(4-(7-(difluoromethyl)pyrazolo[1,5-a]pyridin-2-yl)-6,7-dihydro-1H-imidazo[4,5-c]pyridin-5(4H)-yl)methanone], for which the AC50 lay in the range of 1000 to 5000 nM.

Consider `Cc1cccn2nc([C@@H]3c4nc[nH]c4CCN3C(=O)c3nnc(-c4cncnc4)o3)cc12` [Example 1972, (S)-(4-(4-methylpyrazolo[1,5-a]pyridin-2-yl)-1,4,6,7-tetrahydro-5H-imidazo[4,5-c]pyridin-5-yl)(5-(pyrimidin-5-yl)-1,3,4-oxadiazol-2-yl)methanone], for which the AC50 lay in the range of 500 to 1000 nM.

Consider `Cc1ncccc1-c1nnc(N2CCc3[nH]cnc3[C@@H]2c2cc3c(C(C)C)cccn3n2)o1` [Example 2235, (R)-2-(4-(4-isopropylpyrazolo[1,5-a]pyridin-2-yl)-1,4,6,7-tetrahydro-5H-imidazo[4,5-c]pyridin-5-yl)-5-(2-methylpyridin-3-yl)-1,3,4-oxadiazole], for which the AC50 was more than 5000 nM.

In the case of `Cn1nc(C(F)(F)F)nc1C(=O)N1CCc2[nH]cnc2[C@@H]1c1cc2c(F)cccn2n1` [Example 2399, (R)-(4-(4-fluoropyrazolo[1,5-a]pyridin-2-yl)-6,7-dihydro-1H-imidazo[4,5-c]pyridin-5(4H)-yl)(1-methyl-3-(trifluoromethyl)-1H-1,2,4-triazol-5-yl)methanone], the AC50 was 1000 to 5000 nM.

As for `O=C(c1ocnc1C1CC1)N1CCc2[nH]cnc2[C@@H]1c1cc2c(Cl)cccn2n1` [Example 2041, (R)-(4-(4-chloropyrazolo[1,5-a]pyridin-2-yl)-1,4,6,7-tetrahydro-5H-imidazo[4,5-c]pyridin-5-yl)(4-cyclopropyloxazol-5-yl)methanone], the AC50 fell in the range of 1000 to 5000 nM.

On to `O=C(c1nnc(C2CCC2)o1)N1CCc2[nH]cnc2[C@H]1c1cc2cccc(C(F)(F)F)n2n1` [Example 2430, (S)-(5-cyclobutyl-1,3,4-oxadiazol-2-yl)(4-(7-(trifluoromethyl)pyrazolo[1,5-a]pyridin-2-yl)-6,7-dihydro-1H-imidazo[4,5-c]pyridin-5(4H)-yl)methanone], for which the AC50 lay in the range of 1000 to 5000 nM.

For the compound `O=C(c1cnc(C2CC2)o1)N1CCc2[nH]cnc2[C@H]1c1cc2ccccn2n1` [Example 2496, (S)-(2-cyclopropyloxazol-5-yl)(4-(pyrazolo[1,5-a]pyridin-2-yl)-1,4,6,7-tetrahydro-5H-imidazo[4,5-c]pyridin-5-yl)methanone], the AC50 lay within 1000 to 5000 nM.

Turning to `CC(C)c1cccn2nc([C@@H]3c4nc[nH]c4CCN3C(=O)c3nnc(-c4ccn(C)n4)o3)cc12` [Example 1951, (S)-(4-(4-isopropylpyrazolo[1,5-a]pyridin-2-yl)-1,4,6,7-tetrahydro-5H-imidazo[4,5-c]pyridin-5-yl)(5-(1-methyl-1H-pyrazol-3-yl)-1,3,4-oxadiazol-2-yl)methanone], the AC50 is less than 500 nM.

The assay is the same for the next values; noted with them: A375 cells expressing human R408W PAH; 24 hrs compound incubation; 13C-Tyrosine by LC-MS; average where tested multiple times; read-out: AC50.
`CC1(c2nnc(C(=O)N3CCc4[nH]cnc4[C@@H]3c3cc4c(F)cccn4n3)o2)CC1` [Example 1379, (R)-(4-(4-fluoropyrazolo[1,5-a]pyridin-2-yl)-6,7-dihydro-1H-imidazo[4,5-c]pyridin-5(4H)-yl)(5-(1-methylcyclopropyl)-1,3,4-oxadiazol-2-yl)methanone]: the AC50 was more than 5000 nM.

As for `CC(C)(O)c1nc(C2CC2)c(C(=O)N2CCc3[nH]cnc3[C@H]2c2cc3ccccn3n2)o1` [Example 624, (S)-(4-cyclopropyl-2-(2-hydroxypropan-2-yl)oxazol-5-yl)(4-(pyrazolo[1,5-a]pyridin-2-yl)-6,7-dihydro-1H-imidazo[4,5-c]pyridin-5(4H)-yl)methanone], the AC50 was in the range of 1000 to 5000 nM.

For `Cc1nn(C)cc1-c1nnc(C(=O)N2CCc3[nH]cnc3[C@H]2c2cc3cccc(F)n3n2)o1` [Example 1566, (S)-(5-(1,3-dimethyl-1H-pyrazol-4-yl)-1,3,4-oxadiazol-2-yl)(4-(7-fluoropyrazolo[1,5-a]pyridin-2-yl)-6,7-dihydro-1H-imidazo[4,5-c]pyridin-5(4H)-yl)methanone], the AC50 is 500 to 1000 nM.

For the compound `COc1ccc(-c2nnc(C(=O)N3CCc4[nH]cnc4[C@@H]3c3cc4c(F)cccn4n3)o2)nc1` [Example 789, (R)-(4-(4-fluoropyrazolo[1,5-a]pyridin-2-yl)-6,7-dihydro-1H-imidazo[4,5-c]pyridin-5(4H)-yl)(5-(5-methoxypyridin-2-yl)-1,3,4-oxadiazol-2-yl)methanone], the AC50 lay in the range of 1000 to 5000 nM.

For the compound `O=C(c1nnc(N2CCC(F)CC2)o1)N1CCc2[nH]cnc2[C@H]1c1cc2c(F)cccn2n1` [Example 1014, (S)-(5-(4-fluoropiperidin-1-yl)-1,3,4-oxadiazol-2-yl)(4-(4-fluoropyrazolo[1,5-a]pyridin-2-yl)-6,7-dihydro-1H-imidazo[4,5-c]pyridin-5(4H)-yl)methanone], the AC50 is less than 500 nM.

Consider `Cc1cccn2nc([C@H]3c4nc[nH]c4CCN3c3nc4ccccc4o3)cc12` [Example 1642, (R)-2-(4-(4-methylpyrazolo[1,5-a]pyridin-2-yl)-6,7-dihydro-1H-imidazo[4,5-c]pyridin-5(4H)-yl)benzo[d]oxazole], for which the AC50 was more than 5000 nM.

Regarding `CC(C)c1nnc(C(=O)N2CCc3[nH]cnc3[C@H]2c2cc3ccccn3n2)o1` [Example 1448, (S)-(5-isopropyl-1,3,4-oxadiazol-2-yl)(4-(pyrazolo[1,5-a]pyridin-2-yl)-6,7-dihydro-1H-imidazo[4,5-c]pyridin-5(4H)-yl)methanone], the AC50 is 500 to 1000 nM.

Consider `Cn1nc(Cl)nc1C(=O)N1CCc2[nH]cnc2[C@@H]1c1cc2ccccn2n1` [Example 695, (R)-(3-chloro-1-methyl-1H-1,2,4-triazol-5-yl)(4-(pyrazolo[1,5-a]pyridin-2-yl)-6,7-dihydro-1H-imidazo[4,5-c]pyridin-5(4H)-yl)methanone], for which the AC50 is more than 5000 nM.

For `O=C(c1cnn2cc(C3CC3)ccc12)N1CCc2[nH]cnc2[C@@H]1c1cc2cccc(Cl)n2n1` [Example 1745, (R)-(4-(7-chloropyrazolo[1,5-a]pyridin-2-yl)-6,7-dihydro-1H-imidazo[4,5-c]pyridin-5(4H)-yl)(6-cyclopropylpyrazolo[1,5-a]pyridin-3-yl)methanone], the AC50 was more than 5000 nM.

With `O=C(c1cnco1)N1CCc2[nH]cnc2[C@H]1c1cc2c(Cl)cccn2n1` [Example 766, (S)-(4-(4-chloropyrazolo[1,5-a]pyridin-2-yl)-6,7-dihydro-1H-imidazo[4,5-c]pyridin-5(4H)-yl)(oxazol-5-yl)methanone], the AC50 is less than 500 nM.

For the compound `COc1ccc(-c2nnc(C(=O)N3CCc4[nH]cnc4[C@H]3c3cc4cccc(C)n4n3)o2)nc1` [Example 910, (S)-(5-(5-methoxypyridin-2-yl)-1,3,4-oxadiazol-2-yl)(4-(7-methylpyrazolo[1,5-a]pyridin-2-yl)-6,7-dihydro-1H-imidazo[4,5-c]pyridin-5(4H)-yl)methanone], the AC50 was in the range of 500 to 1000 nM.

Turning to `Cn1cc(-c2nnc(C(=O)N3CCc4[nH]cnc4[C@@H]3c3cc4cccc(F)n4n3)o2)cn1` [Example 1225, (R)-(4-(7-fluoropyrazolo[1,5-a]pyridin-2-yl)-6,7-dihydro-1H-imidazo[4,5-c]pyridin-5(4H)-yl)(5-(1-methyl-1H-pyrazol-4-yl)-1,3,4-oxadiazol-2-yl)methanone], the AC50 is 1000 to 5000 nM.

Take `Cn1ccc(-c2ccc3c(C(=O)N4CCc5[nH]cnc5[C@@H]4c4cc5c(F)cccn5n4)cnn3c2)n1` [Example 1647, (R)-(4-(4-fluoropyrazolo[1,5-a]pyridin-2-yl)-6,7-dihydro-1H-imidazo[4,5-c]pyridin-5(4H)-yl)(6-(1-methyl-1H-pyrazol-3-yl)pyrazolo[1,5-a]pyridin-3-yl)methanone]: the AC50 was more than 5000 nM.

`Cc1ncccc1-c1nnc(C(=O)N2CCc3[nH]cnc3[C@H]2c2cc3cccc(Cl)n3n2)o1` [Example 1334, (S)-(4-(7-chloropyrazolo[1,5-a]pyridin-2-yl)-6,7-dihydro-1H-imidazo[4,5-c]pyridin-5(4H)-yl)(5-(2-methylpyridin-3-yl)-1,3,4-oxadiazol-2-yl)methanone]: the AC50 is less than 500 nM.

A word on the AC50: it is the concentration at which the activity in the assay is half-maximal.
